How the values were obtained:
[1] = molecular target: T1, cGMP-dependent protein kinase 1 (Homo sapiens) (UniProt Q13976); experiment: Inhibition of human full length PKG-1a expressed in baculovirus assessed as substrate phosphorylation using fluorescence-labelled peptides as substrate at 0.06 uM after 90 mins by microfluidic peptide phosphorylation assay
T1 sequence (whole entry): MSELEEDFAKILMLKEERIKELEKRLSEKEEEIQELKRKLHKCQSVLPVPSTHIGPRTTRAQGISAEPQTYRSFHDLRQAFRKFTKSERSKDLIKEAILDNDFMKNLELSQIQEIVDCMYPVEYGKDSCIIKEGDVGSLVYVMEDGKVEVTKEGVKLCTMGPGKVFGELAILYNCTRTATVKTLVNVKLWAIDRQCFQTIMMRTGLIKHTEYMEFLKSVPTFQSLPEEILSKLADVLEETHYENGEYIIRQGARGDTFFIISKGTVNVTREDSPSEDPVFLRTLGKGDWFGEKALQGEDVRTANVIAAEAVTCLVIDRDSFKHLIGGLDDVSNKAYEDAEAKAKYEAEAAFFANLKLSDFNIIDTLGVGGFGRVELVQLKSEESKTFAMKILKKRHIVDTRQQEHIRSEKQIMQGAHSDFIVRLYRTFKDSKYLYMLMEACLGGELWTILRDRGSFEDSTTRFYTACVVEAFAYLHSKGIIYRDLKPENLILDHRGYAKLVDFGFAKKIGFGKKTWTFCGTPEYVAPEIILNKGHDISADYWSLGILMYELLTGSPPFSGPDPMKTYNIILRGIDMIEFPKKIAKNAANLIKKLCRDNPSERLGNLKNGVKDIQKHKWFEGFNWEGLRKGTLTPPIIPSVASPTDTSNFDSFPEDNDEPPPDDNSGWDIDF

[2] = molecular target: Vascular endothelial growth factor receptor 2 (Homo sapiens) (UniProt P35968); experiment: Inhibition of human KDR cytoplasmic domain expressed in baculovirus assessed as substrate phosphorylation using fluorescence-labelled peptides as substrate at 420 uM after 90 mins by microfluidic peptide phosphorylation assay
[3] = molecular target: Mitogen-activated protein kinase 14 (Homo sapiens) (UniProt Q16539); experiment: Inhibition of human truncated p38 alpha expressed in Escherichia coli cell assessed as substrate phosphorylation using fluorescence-labelled peptides as substrate at 420 uM after 90 mins by microfluidic peptide phosphorylation assay
[4] = molecular target: Mitogen-activated protein kinase 1 (Homo sapiens) (UniProt P28482); experiment: Inhibition of human full length ERK2 expressed in Escherichia coli cell assessed as substrate phosphorylation using fluorescence-labelled peptides as substrate at 0.2 uM after 90 mins by microfluidic peptide phosphorylation assay
[5] = molecular target: Protein kinase C beta type (Homo sapiens) (UniProt P05771); experiment: Inhibition of human truncated PKC beta1 expressed in baculovirus assessed as substrate phosphorylation using fluorescence-labelled peptides as substrate at 0.1 uM after 90 mins by microfluidic peptide phosphorylation assay
[6] = molecular target: Ribosomal protein S6 kinase alpha-3 (Homo sapiens) (UniProt P51812); experiment: Inhibition of human full length RSK2 expressed in baculovirus assessed as substrate phosphorylation using fluorescence-labelled peptides as substrate at 70 uM after 90 mins by microfluidic peptide phosphorylation assay
[7] = molecular target: Serine/threonine-protein kinase Chk2 (Homo sapiens) (UniProt O96017); experiment: Inhibition of human full length CHK2 expressed in baculovirus assessed as substrate phosphorylation using fluorescence-labelled peptides as substrate at 95 uM after 90 mins by microfluidic peptide phosphorylation assay
[8] = molecular target: T2, Serine/threonine-protein kinase D1 (Homo sapiens) (UniProt Q15139); experiment: Inhibition of human full length PKD1 expressed in baculovirus assessed as substrate phosphorylation using fluorescence-labelled peptides as substrate at 95 uM after 90 mins by microfluidic peptide phosphorylation assay
T2 sequence (whole entry): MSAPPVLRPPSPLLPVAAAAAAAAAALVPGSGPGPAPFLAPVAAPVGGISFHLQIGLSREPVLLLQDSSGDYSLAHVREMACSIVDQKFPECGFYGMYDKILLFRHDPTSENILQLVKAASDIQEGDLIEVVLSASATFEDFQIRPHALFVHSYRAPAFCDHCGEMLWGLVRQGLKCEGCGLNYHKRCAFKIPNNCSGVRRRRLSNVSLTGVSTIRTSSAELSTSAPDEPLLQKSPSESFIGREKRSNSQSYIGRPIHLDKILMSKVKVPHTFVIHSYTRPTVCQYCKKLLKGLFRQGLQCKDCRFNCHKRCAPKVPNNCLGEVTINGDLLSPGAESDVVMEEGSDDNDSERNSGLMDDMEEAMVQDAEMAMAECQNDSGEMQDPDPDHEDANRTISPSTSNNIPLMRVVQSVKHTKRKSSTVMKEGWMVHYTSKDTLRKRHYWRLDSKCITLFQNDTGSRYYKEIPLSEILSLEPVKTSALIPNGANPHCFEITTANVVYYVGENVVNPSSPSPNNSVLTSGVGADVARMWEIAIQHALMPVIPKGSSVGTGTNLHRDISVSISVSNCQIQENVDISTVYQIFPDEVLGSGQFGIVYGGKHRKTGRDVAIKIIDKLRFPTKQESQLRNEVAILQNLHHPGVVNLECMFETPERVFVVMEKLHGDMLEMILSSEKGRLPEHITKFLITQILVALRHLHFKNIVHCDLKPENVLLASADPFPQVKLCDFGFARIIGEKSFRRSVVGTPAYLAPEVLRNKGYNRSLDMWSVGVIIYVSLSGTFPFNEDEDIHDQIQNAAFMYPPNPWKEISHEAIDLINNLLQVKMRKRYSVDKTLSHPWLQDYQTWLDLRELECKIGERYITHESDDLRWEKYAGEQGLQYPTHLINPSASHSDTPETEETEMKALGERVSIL

[9] = molecular target: Protein kinase C alpha type (Homo sapiens) (UniProt P17252); experiment: Inhibition of human truncated PKC alpha expressed in baculovirus assessed as substrate phosphorylation using fluorescence-labelled peptides as substrate at 95 uM after 90 mins by microfluidic peptide phosphorylation assay
[10] = molecular target: T3, Serine/threonine-protein kinase Sgk3 (Homo sapiens) (UniProt Q96BR1); experiment: Inhibition of human full length SGK3 expressed in baculovirus assessed as substrate phosphorylation using fluorescence-labelled peptides as substrate at 2 uM after 90 mins by microfluidic peptide phosphorylation assay
T3 sequence (whole entry): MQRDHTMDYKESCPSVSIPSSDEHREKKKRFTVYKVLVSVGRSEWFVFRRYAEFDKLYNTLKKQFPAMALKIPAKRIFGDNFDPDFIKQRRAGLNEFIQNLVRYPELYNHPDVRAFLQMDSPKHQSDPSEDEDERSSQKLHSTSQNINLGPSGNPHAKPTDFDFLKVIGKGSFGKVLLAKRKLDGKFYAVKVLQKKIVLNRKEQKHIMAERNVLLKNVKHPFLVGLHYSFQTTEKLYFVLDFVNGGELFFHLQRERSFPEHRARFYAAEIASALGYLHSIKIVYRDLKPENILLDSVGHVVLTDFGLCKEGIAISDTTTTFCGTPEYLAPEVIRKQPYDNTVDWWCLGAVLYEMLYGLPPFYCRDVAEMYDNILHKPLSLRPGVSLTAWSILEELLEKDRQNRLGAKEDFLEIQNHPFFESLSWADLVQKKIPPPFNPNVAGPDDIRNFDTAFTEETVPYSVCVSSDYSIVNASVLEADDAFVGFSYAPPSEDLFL

Chain of Serine/threonine-protein kinase Chk2 (Homo sapiens) (O96017 whole entry): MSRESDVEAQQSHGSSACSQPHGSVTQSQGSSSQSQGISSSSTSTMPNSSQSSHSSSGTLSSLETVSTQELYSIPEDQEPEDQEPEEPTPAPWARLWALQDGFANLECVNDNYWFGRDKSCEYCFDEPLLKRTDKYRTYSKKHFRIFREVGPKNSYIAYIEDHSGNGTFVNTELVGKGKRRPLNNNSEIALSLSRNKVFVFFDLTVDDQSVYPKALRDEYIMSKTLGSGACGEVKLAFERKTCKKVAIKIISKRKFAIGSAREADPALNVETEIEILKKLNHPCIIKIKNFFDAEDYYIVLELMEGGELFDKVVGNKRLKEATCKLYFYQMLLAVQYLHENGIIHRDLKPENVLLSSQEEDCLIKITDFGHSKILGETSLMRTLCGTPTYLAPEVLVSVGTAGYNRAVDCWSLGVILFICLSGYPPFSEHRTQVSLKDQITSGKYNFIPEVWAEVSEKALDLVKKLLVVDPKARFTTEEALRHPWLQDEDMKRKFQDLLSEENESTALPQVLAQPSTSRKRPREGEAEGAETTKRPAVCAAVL
Chain of Protein kinase C beta type (Homo sapiens) (P05771 2-671 limits assumed): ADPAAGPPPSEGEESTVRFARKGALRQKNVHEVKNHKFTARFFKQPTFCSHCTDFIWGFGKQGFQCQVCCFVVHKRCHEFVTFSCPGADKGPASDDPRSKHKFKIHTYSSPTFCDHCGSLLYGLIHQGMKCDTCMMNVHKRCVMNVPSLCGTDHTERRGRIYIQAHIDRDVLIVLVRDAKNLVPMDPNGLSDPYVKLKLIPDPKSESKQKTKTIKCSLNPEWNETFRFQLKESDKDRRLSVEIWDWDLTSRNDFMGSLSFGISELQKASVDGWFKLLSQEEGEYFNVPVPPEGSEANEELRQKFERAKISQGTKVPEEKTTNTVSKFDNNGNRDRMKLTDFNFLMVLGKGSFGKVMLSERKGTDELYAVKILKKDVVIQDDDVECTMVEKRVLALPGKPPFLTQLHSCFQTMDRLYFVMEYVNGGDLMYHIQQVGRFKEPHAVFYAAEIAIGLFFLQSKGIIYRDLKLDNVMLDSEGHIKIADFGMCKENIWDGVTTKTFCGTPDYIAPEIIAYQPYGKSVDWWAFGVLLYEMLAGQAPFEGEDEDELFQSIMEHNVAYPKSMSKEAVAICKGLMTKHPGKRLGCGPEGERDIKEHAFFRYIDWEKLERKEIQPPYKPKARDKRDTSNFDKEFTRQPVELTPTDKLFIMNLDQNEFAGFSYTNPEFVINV
Chain of Mitogen-activated protein kinase 1 (Homo sapiens) (P28482 whole entry, the tested form may be a part): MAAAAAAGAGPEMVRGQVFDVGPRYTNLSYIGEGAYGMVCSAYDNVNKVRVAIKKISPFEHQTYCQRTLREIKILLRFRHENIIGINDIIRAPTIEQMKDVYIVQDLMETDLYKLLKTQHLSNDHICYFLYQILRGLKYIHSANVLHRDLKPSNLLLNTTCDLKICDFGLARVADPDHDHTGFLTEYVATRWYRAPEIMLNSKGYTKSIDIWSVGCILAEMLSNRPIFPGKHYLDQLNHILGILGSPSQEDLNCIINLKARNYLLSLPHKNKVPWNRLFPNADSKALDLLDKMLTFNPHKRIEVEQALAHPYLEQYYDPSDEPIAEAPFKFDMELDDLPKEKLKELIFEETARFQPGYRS
Chain of Mitogen-activated protein kinase 14 (Homo sapiens) (Q16539 whole entry, the tested form may be a part): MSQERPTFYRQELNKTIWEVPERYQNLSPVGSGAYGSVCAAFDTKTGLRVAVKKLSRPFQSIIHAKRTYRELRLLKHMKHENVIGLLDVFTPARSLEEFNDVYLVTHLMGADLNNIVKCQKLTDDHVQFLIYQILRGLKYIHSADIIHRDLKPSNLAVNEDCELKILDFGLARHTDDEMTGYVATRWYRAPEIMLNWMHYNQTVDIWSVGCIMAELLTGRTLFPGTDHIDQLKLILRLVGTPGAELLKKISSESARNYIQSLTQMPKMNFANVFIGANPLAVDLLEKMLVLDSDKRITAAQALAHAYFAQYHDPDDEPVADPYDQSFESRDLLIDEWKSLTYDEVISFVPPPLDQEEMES
Chain of Vascular endothelial growth factor receptor 2 (Homo sapiens) (P35968 whole entry, the tested form may be a part): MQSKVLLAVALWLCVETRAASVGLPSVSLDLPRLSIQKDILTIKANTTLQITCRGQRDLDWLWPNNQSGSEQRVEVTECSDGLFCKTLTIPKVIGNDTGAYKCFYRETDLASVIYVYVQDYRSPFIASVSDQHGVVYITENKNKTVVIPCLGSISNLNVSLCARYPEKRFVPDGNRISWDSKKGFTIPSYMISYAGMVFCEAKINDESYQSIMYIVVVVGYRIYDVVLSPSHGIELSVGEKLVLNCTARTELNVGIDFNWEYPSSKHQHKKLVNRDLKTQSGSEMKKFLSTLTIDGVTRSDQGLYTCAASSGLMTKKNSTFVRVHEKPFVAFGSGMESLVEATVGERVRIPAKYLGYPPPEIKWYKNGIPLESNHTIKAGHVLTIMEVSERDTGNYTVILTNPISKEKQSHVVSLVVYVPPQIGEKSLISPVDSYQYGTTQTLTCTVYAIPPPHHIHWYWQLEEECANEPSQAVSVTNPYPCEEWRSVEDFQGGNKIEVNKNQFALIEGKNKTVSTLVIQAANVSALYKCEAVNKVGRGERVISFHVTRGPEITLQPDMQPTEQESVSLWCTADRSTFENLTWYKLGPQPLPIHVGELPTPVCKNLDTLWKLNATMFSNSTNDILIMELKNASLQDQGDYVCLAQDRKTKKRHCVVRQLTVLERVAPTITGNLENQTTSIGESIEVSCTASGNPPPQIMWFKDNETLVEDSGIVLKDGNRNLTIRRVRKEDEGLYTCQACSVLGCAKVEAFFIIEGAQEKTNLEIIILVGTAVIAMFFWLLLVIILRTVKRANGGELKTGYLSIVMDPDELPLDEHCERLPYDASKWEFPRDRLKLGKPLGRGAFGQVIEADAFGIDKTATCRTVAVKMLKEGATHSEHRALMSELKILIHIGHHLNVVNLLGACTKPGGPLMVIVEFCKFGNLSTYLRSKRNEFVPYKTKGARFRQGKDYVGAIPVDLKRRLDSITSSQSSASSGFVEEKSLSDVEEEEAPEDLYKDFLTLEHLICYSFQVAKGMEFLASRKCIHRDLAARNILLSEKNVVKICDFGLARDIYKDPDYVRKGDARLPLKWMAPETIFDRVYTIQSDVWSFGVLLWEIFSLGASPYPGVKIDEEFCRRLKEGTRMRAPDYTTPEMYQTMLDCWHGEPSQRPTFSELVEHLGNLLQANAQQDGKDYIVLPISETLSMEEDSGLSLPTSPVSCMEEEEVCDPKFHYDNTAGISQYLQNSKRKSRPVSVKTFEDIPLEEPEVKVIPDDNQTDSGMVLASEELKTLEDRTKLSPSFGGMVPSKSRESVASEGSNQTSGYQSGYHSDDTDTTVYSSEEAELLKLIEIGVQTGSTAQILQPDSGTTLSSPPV
Chain of Ribosomal protein S6 kinase alpha-3 (Homo sapiens) (P51812 whole entry): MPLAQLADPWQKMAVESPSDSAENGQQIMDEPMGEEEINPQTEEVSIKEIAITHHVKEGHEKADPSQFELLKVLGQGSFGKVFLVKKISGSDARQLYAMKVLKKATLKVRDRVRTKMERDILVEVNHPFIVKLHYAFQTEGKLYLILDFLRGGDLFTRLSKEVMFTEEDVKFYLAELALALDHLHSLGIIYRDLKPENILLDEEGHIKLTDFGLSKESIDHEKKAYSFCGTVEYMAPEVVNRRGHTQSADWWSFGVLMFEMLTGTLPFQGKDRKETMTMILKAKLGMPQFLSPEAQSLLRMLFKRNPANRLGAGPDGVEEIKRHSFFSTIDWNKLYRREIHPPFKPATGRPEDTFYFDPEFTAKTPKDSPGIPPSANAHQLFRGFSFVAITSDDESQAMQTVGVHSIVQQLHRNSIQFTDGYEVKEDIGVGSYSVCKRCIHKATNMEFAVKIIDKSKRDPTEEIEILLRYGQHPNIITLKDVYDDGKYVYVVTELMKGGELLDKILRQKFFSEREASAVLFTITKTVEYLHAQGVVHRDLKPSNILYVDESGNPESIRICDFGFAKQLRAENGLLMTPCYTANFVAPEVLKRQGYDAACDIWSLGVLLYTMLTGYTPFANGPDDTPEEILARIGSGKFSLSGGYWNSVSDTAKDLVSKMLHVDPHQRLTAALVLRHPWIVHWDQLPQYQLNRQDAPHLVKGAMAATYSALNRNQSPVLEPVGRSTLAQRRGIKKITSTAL

Structure (SMILES): NC1(Cc2ccc(Cl)cc2)CCN(c2ncnc3[nH]ccc23)CC1
- inhibition [1]: 0%

Structure (SMILES): c1nc(N2CCOCC2)c2nc[nH]c2n1
- inhibition [2]: 95.5%
- inhibition [3]: 0%

Structure (SMILES): Clc1ccc(C2(c3ccc(-c4ncnc5[nH]cnc45)cc3)CCNCC2)cc1
- inhibition [4]: 7%

Structure (SMILES): C[C@H](CN(C)C)Oc1nc(Nc2cc3cccc(Cl)c3cn2)cnc1C#N
- inhibition [5]: 3%

Structure (SMILES): CNCc1ccc(-c2ncnc3[nH]cnc23)cc1
- inhibition [6]: 75%

Structure (SMILES): NCCc1ccc(-c2ncnc3[nH]cnc23)cc1
- inhibition [7]: 74%
- inhibition [8]: 44%
- inhibition [9]: 69.5%

Structure (SMILES): NC1CCN(c2ncnc3[nH]ccc23)CC1
- inhibition [10]: 34.5%

— ChEMBL document CHEMBL3132769, “Fragment growing to retain or alter the selectivity of anchored kinase hinge-binding fragments” (Medchemcomm, 2014)
